Measurements reported in US8889894B2, “Compounds for use in therapy” (Bangor University, priority 2008, dated 2014).

Tests used:
alveolar macrophages = assay: Foaming of mycolic acid treated alveolar macrophages (ORO-stained lung sections); assay type: in vivo, C57BL/6 mice; conditions: single intratracheal dose of liposomes carrying compound, a week earlier; compared with empty liposomes or liposomes containing compound 1; FIG. 2
Experimental: (§1) Briefly, the compounds were mixed with phosphatidylcholine (Sigma) in chloroform. The chloroform was evaporated and the lipids recovered in sterile saline. After ultrasound sonication and vortexing, samples of 25 μg mycolic acids/100 μl/mouse were administered intratracheally. A liposome control was prepared similarly, but without the addition of any mycolic acid compound.
Formation of cholesterol-rich foamy alveolar macrophages upon intratracheal instillation of mycolic acid containing liposomes is indicative of a possible mycolic acid induced suppression of Th2-mediated eosinophilia. In a mouse model of allergic asthma this is mediated by a mechanism involving antigen presentation by these foam cells and the activity of regulatory T-lymphocytes (Korf et al, Am. J. Respir. Crit. Care Med., 174, 1-9, 2006).
We verified the induction of cholesterol-loaded cells in the lungs of C57BL/6 mice that received a single dose of liposomes carrying compounds a week earlier. The mice were treated with empty liposomes, liposomes containing control compound 1, liposomes containing compound 2 and liposomes containing compound 4. Frozen lung sections were stained with the lipophilic Oil Red O dye (ORO) thereby visualising foam cell intracellular lipid vesicles and counterstained with haematoxylin. […]

C547BL/6 mice [1] = assay: Histo-pathological examination of lung tissue (haematoxylin and eosin, score 0-5); assay type: in vivo; conditions: 48 hours after intratracheal liposomes; lavaged lungs, double-blinded pathologist score; FIG. 4
From the text: Lavaged lungs were ectomised to allow for histo-pathological examination of the lung tissue. A haematoxylin and eosin staining of the paraffin lung sections was followed by a thorough examination by a skilled pathologist who scored the sections according to the following criteria in a double-blinded manner:
1=a minority of the bronchi are surrounded by some infiltrated inflammatory cells
2=the majority of the bronchi are surrounded by some infiltrated inflammatory cells
3=dispersed are some heavy infiltrates of neutrophils and eosinophils
4=a lot of infiltrating neutrophils and eosinophils throughout the entire lung section
5=same as 4 with additionally signs of airway remodelling e.g. basal membrane thickening, mucus overproduction and/or smooth muscle cell hyperplasia

C547BL/6 mice [2] = assay: Inflammatory cell infiltration to the airways (BAL, flowcytometry); assay type: in vivo; conditions: 48 hours after intratracheal liposomes; BAL-fluid; compared to empty liposome treatment
Experimental: as §1
In order to be considered safe for therapeutic administration, compounds should preferably cause as little local inflammation or resulting tissue changes as possible.
After 48 hours, mice were sacrificed and a broncho-alveolar lavage (BAL) was performed to measure the airway cell types and numbers by flowcytometry. Increased cell numbers and the appearance of granulocytes (mainly neutrophils) in the BAL-fluid are indicative for cell recruitment to the airways as result of an inflammatory reaction.

[3] = tested on: Th2-driven allergic airway inflammation; assay: Suppression of allergic airway inflammation in a mouse asthma model (OVA/Alum immunised, OVA-aerosol challenge); assay type: in vivo; conditions: liposomes intratracheally to OVA/Alum immunised mice, OVA-aerosol challenge after 7 days; flowcytometry (CCR3+); vs empty liposomes; FIG. 5
Experimental: as §1
Liposome containing synthetic mycolic acids compounds 5, 6 and 7 were administered intratracheally to mice which had been immunised for the experimental allergen chicken egg ovalbumin (OVA) adjuvanted with Alum (aluminium hydroxide). Following 7 days, the mice were challenged with OVA-aerosol. Th2-driven allergic airway inflammation was apparent in empty liposomes treated animals, from high eosinophil counts in the BAL-fluid by flowcytometry (CCR3^+).

[4] = tested on: CD4+ T-helper (Th) lymphocytes; assay: mRNA expression patterns by RT-qPCR of CD4+ T-helper lymphocytes from asthmatic mouse lungs; assay type: in vivo; conditions: compounds in liposomes; with reference to empty liposome treatment; FIG. 7
From the text: From the previous examples it can be concluded that the synthetic mycolic acids have a significant effect on immune reactivity. The nature of the immune modification appears to be structure dependent. This can be seen from examination of mRNA expression patterns by RT-qPCR of CD4+ T-helper (Th) lymphocytes, isolated from asthmatic mouse lungs after treatment with compounds 6, 8 and 9 formulated into liposomes. The results are shown in FIGS. 7a to e with reference to an empty liposome treatment. All of the synthetic mycolic acid isomers repressed the transcription of the Th2 effector cytokine IL-4 to some degree.

Compound	inflammatory cell infiltration to the airways (C547BL/6 mice [2])	scores of ORO positive cells/microscopic field (alveolar macrophages)	lung tissue changes (C547BL/6 mice [1])	also measured
CCCCCCCCCCCCCCCCCCCCCCCC[C@@H](C(=O)O)[C@H](O)CCCCCCCCCCCCCCC[C@@H]1C[C@@H]1CCCCCCCCCCCCCCCCCCC(=O)[C@@H](C)CCCCCCCCCCCCCCCCCC (single isomer, unassigned) [Example 3]	–	–	–	melting point: 66 to 68 °C
CCCCCCCCCCCCCCCCCCCCCCCC[C@@H](C(=O)O)[C@H](O)CCCCCCCCCCC[C@H]1CC1CCCCCCCCCCCCCC[C@H]1C[C@H]1CCCCCCCCCCCCCCCCCCCC (some centres unmarked) [Compound 2]	–	significantly higher scores	–	–
CCCCCCCCCCCCCCCCCCCC[C@H]1C[C@H]1CCCCCCCCCCCCCCC1C[C@H]1CCCCCCCCCCC[C@@H](O)[C@@H](CC)C(=O)O (some centres unmarked) [Compound 3]	do not	–	did not cause any significant lung tissue changes	–
CCCCCCCCCCCCCCCCCCCCCCCC[C@@H](C(=O)O)[C@H](O)CCCCCCCCCCCCCCCC[C@H]1C[C@@H]1[C@@H](C)CCCCCCCCCCCCCCCCCCC(=O)C(C)CCCCCCCCCCCCCCCCCC (some centres unmarked) [Compound 4]	do not	significantly higher scores	did not cause any significant lung tissue changes	–
CCCCCCCCCCCCCCCCCCCCCCCC[C@@H](C(=O)O)[C@H](O)CCCCCCCCCCCCCCCCC[C@@H]1CC1CCCCCCCCCCCCCCCC[C@@H](OC)[C@@H](C)CCCCCCCCCCCCCCCCCC (some centres unmarked) [Compound 6]	–	–	–	eosinophil count in the BAL-fluid [3]: at least two-fold decreased; FoxP3 (regulatory T-cell) response [4]: especially good in suppressing; Gata-3 transcription (Th2) [4]: especially good in suppressing; IL-4 transcription (Th2 effector cytokine) [4]: especially good in suppressing
